Where two headings read alike, the source gives them in different places.
Tests used:
P-gp [1] = conditions: cited from earlier work
P-gp [2] = biological target: T1, P-gp (Homo sapiens, UniProt P08183); assay: Rhodamine 123 efflux assay in KB CH^R 8-5 cells; conditions: for Rh123 % inhibition: 10 μM compound, 0.5 μg/ml rhodamine 123, 45 min, 37 °C; for inhibition at 45 min, 10 µM: human, KB CH^R 8-5 cells, probe rhodamine 123 (0.5 μg/ml)
P-gp [3] = biological target: T1, P-gp; assay: Calcein-AM efflux assay in KB CH^R 8-5 cells; conditions: for Calcein-AM Efflux % inhibition: 10 μM compound, 0.5 μM calcein-AM, 10 min, 37 °C; for P-gp efflux inhibitory activity (in words): calcein-AM and rhodamine 123 assays, 10 μM (Table 4); for inhibition at 10 min, 10 μM / inhibition at 10 µM: human, KB CH^R 8-5 cells; for inhibition at 10 µM: probe calcein-AM (0.5 μg/ml) and rhodamine 123 (0.5 μg/ml)
P-gp [4] = biological target: T1, P-gp
[5] = tested on: parental and P-gp overexpressing cell lines; assay: Cytotoxicity assay of quercetin and rutin alone; assay type: cell-based; conditions: concentrations up to 10 μM, flavonoid alone
P-gp [6] = biological target: T1, P-gp; assay: in vitro
[7] = read-out: Actual IC50 (Literature) (A), ref Literature (source not given)

T1 sequence (P08183 whole entry): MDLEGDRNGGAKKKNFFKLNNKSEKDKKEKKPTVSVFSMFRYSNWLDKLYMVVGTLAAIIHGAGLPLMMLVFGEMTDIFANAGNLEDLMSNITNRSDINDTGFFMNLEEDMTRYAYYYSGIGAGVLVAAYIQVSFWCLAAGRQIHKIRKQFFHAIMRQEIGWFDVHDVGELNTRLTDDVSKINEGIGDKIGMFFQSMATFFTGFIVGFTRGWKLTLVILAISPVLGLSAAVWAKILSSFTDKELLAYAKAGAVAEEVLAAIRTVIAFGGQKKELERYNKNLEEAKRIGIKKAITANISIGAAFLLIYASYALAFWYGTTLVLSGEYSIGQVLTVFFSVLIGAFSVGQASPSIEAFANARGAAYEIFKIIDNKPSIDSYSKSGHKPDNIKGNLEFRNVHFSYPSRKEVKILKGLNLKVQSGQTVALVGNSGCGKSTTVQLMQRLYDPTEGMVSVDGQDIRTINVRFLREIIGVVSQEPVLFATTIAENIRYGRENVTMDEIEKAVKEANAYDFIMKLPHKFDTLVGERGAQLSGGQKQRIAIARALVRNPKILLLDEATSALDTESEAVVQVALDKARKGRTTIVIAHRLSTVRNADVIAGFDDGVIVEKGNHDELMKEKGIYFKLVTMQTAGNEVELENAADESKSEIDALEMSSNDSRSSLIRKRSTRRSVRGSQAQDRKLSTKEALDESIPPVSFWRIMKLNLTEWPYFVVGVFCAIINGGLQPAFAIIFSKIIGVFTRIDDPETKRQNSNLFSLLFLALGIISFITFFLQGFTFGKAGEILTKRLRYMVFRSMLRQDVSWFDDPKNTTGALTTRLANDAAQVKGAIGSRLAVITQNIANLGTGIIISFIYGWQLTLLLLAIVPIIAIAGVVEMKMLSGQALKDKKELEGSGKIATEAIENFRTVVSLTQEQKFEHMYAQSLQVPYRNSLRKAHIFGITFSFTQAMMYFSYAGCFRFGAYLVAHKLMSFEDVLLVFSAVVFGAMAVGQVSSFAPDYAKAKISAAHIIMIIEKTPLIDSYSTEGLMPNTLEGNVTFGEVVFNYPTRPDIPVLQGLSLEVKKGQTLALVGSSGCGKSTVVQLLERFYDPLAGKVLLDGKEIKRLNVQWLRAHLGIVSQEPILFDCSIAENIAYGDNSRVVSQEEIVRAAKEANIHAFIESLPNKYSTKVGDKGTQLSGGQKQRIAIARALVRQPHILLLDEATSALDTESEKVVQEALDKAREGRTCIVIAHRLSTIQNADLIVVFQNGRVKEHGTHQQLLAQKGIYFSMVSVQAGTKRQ

| SMILES | IC50 (P-gp [1]; [7]) [µM] | inhibition at 45 min, 10 µM (P-gp [2]) [%] | P-gp efflux inhibitory activity (in words) (P-gp [3]) | inhibition at 10 min, 10 μM (P-gp [3]) [%] | further results |
| --- | --- | --- | --- | --- | --- |
| Oc1cc(O)c2c(c1)O[C@H](c1ccc(O)c(O)c1)[C@@H](O)C2 [(+)-Catechin] | 50 |  |  |  |  |
| O=C(O[C@@H]1Cc2c(O)cc(O)cc2O[C@@H]1c1ccc(O)c(O)c1)c1cc(O)c(O)c(O)c1 [(-)-Epicatechin 3-gallate] | 15.1 |  |  |  | Rh123 % inhibition (P-gp [2]): 80.56%; Calcein-AM Efflux % inhibition (P-gp [3]): 83.25%; IC50 (P-gp [4]): 33 µM; P-gp efflux inhibitory activity (in words) (P-gp [4]): moderate inhibitory activity |
| Oc1cc(O)c2c(c1)O[C@H](c1ccc(O)c(O)c1)[C@H](O)C2 [(-)-Epicatechin] | 0.4 |  |  |  |  |
| O=C(O[C@@H]1Cc2c(O)cc(O)cc2O[C@@H]1c1cc(O)c(O)c(O)c1)c1cc(O)c(O)c(O)c1 [(-)-Epigallocatechin gallate] | 43.8 |  |  |  |  |
| O=c1cc(-c2ccc(O)cc2)oc2cc(O)cc(O)c12 [Apigenin] | 10 | 35 | low inhibitory activity | 39.5 |  |
| O=c1cc(-c2ccccc2)oc2cc(O)c(O)c(O)c12 [Baicalein] | 1.5 | 7.54 | low inhibitory activity | 11 | inhibition at 10 µM (P-gp [3]): ≤ 15% |
| O=c1cc(-c2ccccc2)oc2cc(O)cc(O)c12 [Chrysin] | 1.5 |  |  |  |  |
| COc1cc(/C=C/C(=O)CC(=O)/C=C/c2ccc(O)c(OC)c2)ccc1O [Curcumin] | 1 |  |  |  |  |
| COc1cccc2c1C(=O)c1c(O)c3c(c(O)c1C2=O)C[C@@](O)(C(C)=O)C[C@@H]3O[C@H]1C[C@H](N)[C@H](O)[C@H](C)O1 [Daunorubicin, reference compound] | 1 |  |  |  |  |
| COc1cccc2c1C(=O)c1c(O)c3c(c(O)c1C2=O)C[C@@](O)(C(=O)CO)C[C@@H]3O[C@H]1C[C@H](N)[C@H](O)[C@H](C)O1 [Doxorubicin, reference compound] | 0.04 |  |  |  |  |
| Oc1cc(O)c2c(c1)O[C@H](c1cc(O)c(O)c(O)c1)[C@H](O)C2 [Epigallocatechin] |  |  |  |  | IC50 (P-gp [1]): 118 µM |
| O=C1C[C@@H](c2ccc(O)c(O)c2)Oc2cc(O)cc(O)c21 [Eriodictyol] | 50 |  |  |  |  |
| O=c1c(O)c(-c2ccc(O)c(O)c2)oc2cc(O)ccc12 [Fistein, Fisetin] | 16 | 13.1 | low inhibitory activity | 16.8 | inhibition at 10 µM (P-gp [3]): ≤ 15% |
| Oc1cc(O)c2c(c1)O[C@H](c1cc(O)c(O)c(O)c1)[C@@H](O)C2 [Gallocatechin] |  |  |  |  | IC50 (P-gp [1]): 136 µM |
| O=c1c(-c2ccc(O)cc2)coc2cc(O)cc(O)c12 [Genistein] |  |  |  |  | IC50 (P-gp [1]): 6.9 µM |
| COc1cc2c(=O)c(-c3ccc(O)cc3)coc2cc1O [Glycitein] | 5.99 |  |  |  |  |
| COc1ccc([C@@H]2CC(=O)c3c(O)cc(O[C@@H]4O[C@H](CO[C@@H]5O[C@@H](C)[C@H](O)[C@@H](O)[C@H]5O)[C@@H](O)[C@H](O)[C@H]4O)cc3O2)cc1O [Hesperidin] | 6.2 |  | low inhibitory activity |  | Rh123 % inhibition (P-gp [2]): 21.09%; Calcein-AM Efflux % inhibition (P-gp [3]): 29.58% |
| COc1ccc([C@@H]2CC(=O)c3c(O)cc(O)cc3O2)cc1O [Hesperitin] | 20 |  |  |  |  |
| O=c1c(O[C@@H]2O[C@H](CO)[C@@H](O)[C@H](O)[C@H]2O)c(-c2ccc(O)c(O)c2)oc2cc(O)cc(O)c12 [Isoquercitrin] | 24.3 | 18.4 | low inhibitory activity | 19.8 |  |

| SMILES | IC50 (P-gp [1]; [7]) [µM] | inhibition at 45 min, 10 µM (P-gp [2]) [%] | P-gp efflux inhibitory activity (in words) (P-gp [3]) | inhibition at 10 min, 10 μM (P-gp [3]) [%] | further results |
| --- | --- | --- | --- | --- | --- |
| O=c1c(O)c(-c2ccc(O)cc2)oc2cc(O)cc(O)c12 [Kaempferol] | 4.8 | 25.1 | low inhibitory activity | 33.8 |  |
| O=c1cc(-c2ccc(O)c(O)c2)oc2cc(O)cc(O)c12 [Luteolin] |  | 11.5 | low inhibitory activity | 12.6 | IC50 (P-gp [1]): 0.8 µM; inhibition at 10 µM (P-gp [3]): ≤ 15% |
| O=c1c(O)c(-c2ccc(O)cc2O)oc2cc(O)cc(O)c12 [Morin] | 8.1 | 40.5 | low inhibitory activity | 42.8 |  |
| O=c1c(O)c(-c2cc(O)c(O)c(O)c2)oc2cc(O)cc(O)c12 [Myricetin] | 5.9 | 55.8 | moderate inhibitory activity | 57.2 |  |
| O=C1C[C@@H](c2ccc(O)cc2)Oc2cc(O)cc(O)c21 [Naringenin] | 16 |  |  |  |  |
| C[C@@H]1O[C@@H](O[C@H]2[C@H](Oc3cc(O)c4c(c3)O[C@H](c3ccc(O)cc3)CC4=O)O[C@H](CO)[C@@H](O)[C@@H]2O)[C@H](O)[C@H](O)[C@H]1O [Naringin] |  | 75.6 | moderate inhibitory activity | 70.2 |  |
| COc1cc2oc(-c3ccccc3)cc(=O)c2c(O)c1O [Negletein] |  |  |  |  | IC50 (P-gp [1]): 6.4 µM |
| Oc1ccc(-c2[o+]c3cc(O)cc(O)c3cc2O)cc1 [Pelargonidin] | 14 | 47.2 | moderate inhibitory activity | 46 |  |
| O=C1C[C@@H](c2ccccc2)Oc2cc(O)cc(O)c21 [Pinocembrin] | 5.8 |  |  |  |  |
| COc1cc(O)c2c(c1)O[C@H](c1ccccc1)CC2=O [Pinostrobin] | 5.4 |  |  |  |  |
| COc1cc(O)c2c(=O)c(-c3ccc(O)cc3)coc2c1 [Prunetin] | 6.4 |  |  |  |  |
| O=c1c(O)c(-c2ccc(O)c(O)c2)oc2cc(O)cc(O)c12 [Quercetin, 2-(3,4-dihydroxyphenyl)-3,5,7-trihydroxy-4H-chromen-4-one] |  |  |  |  | cell survival [5]: > 85% |
| COc1cc(O)c2c(=O)c(OC)c(-c3ccc(OC)c(OC)c3)oc2c1 [Retusin] | 12 | 3.06 | low inhibitory activity | 6.43 | inhibition at 10 µM (P-gp [3]): ≤ 15% |
| C[C@@H]1O[C@@H](OC[C@H]2O[C@@H](Oc3c(-c4ccc(O)c(O)c4)oc4cc(O)cc(O)c4c3=O)[C@H](O)[C@@H](O)[C@@H]2O)[C@H](O)[C@H](O)[C@H]1O [Rutin, 2-(3,4-dihydroxyphenyl)-5,7-dihydroxy-3-[α-L-rhamnopyranosyl-(1→6)-β-D-glucopyranosyloxy]-4H-chromen-4-one] |  |  |  |  | cell survival [5]: > 85% |
| Oc1ccc2c(c1)OCO2 [Sesamol] | 0.3 |  |  |  |  |
| COc1cc(C2Oc3cc([C@H]4Oc5cc(O)cc(O)c5C(=O)[C@@H]4O)ccc3OC2CO)ccc1O (some centres unmarked) [Silibinin] | 3.4 |  | moderate inhibitory activity |  | Calcein-AM Efflux % inhibition (P-gp [3]): 63.75%; inhibition at 10 µM (P-gp [6]): 71.4% |
| COc1ccc(-c2oc3cc(O)cc(O)c3c(=O)c2O)cc1O [Tamarixetin] | 10 | 77.2 | moderate inhibitory activity | 78.7 | IC50 (P-gp [3]): 46 µM |
| COc1ccc(-c2cc(=O)c3c(OC)c(OC)c(OC)c(OC)c3o2)cc1 [Tangeritin] | 3 |  | low inhibitory activity |  | Rh123 % inhibition (P-gp [2]): 12.76%; Calcein-AM Efflux % inhibition (P-gp [3]): 14.23%; inhibition in calcein-AM and rhodamine-123 assays (P-gp [3]; 10 μM concentration, both calcein-AM and rhodamine-123 assay data): ≤ 15% |
| O=c1c(O)cc([C@H]2Oc3cc(O)cc(O)c3C[C@H]2O)cc2c([C@H]3Oc4cc(O)cc(O)c4C[C@H]3O)cc(O)c(O)c12 [Theaflavine] | 60 | 83.2 | very effective P-gp efflux inhibitory activity | 88.8 | IC50 (P-gp [3]): 20 µM |
